# According to patent US10633382B2, “Imidazopyrazinones, pyrazolopyrimidinones and pyrazolopyridinones as PDE1 inhibitors” (H. Lundbeck A/S, priority 2016, dated 2020):
# What was measured:
# Assay type in all cases: biochemical
# PDE1A = PDE1A (Homo sapiens, UniProt P54750); assay: PDE1 inhibition assay (PDE1A); details: 15 nM tritium labelled cAMP, SPA
# Experimental: (§1) PDE1A, PDE1B and PDE1C assays were performed as follows: the assays were performed in 60 μL samples containing a fixed amount of the PDE1 enzyme (sufficient to convert 20-25% of the cyclic nucleotide substrate), a buffer (50 mM HEPES (4-(2-hydroxyethyl)-1-piperazineethanesulfonic acid) pH 7.6; 10 mM MgCl2; 0.02% Tween20), 0.1 mg/ml BSA (bovine serum albumin), 15 nM tritium labelled cAMP and varying amounts of inhibitors. Reactions were initiated by addition of the cyclic nucleotide substrate, and reactions were allowed to proceed for 1 hr at room temperature before being terminated through mixing with 20 μL (0.2 mg) yttrium silicate SPA beads (PerkinElmer). The beads were allowed to settle for 1 hour in the dark before the plates were counted in a Wallac 1450 Microbeta counter. The measured signals were converted to activity relative to an uninhibited control (100%) and IC50 values were calculated using XlFit (model 205, IDBS).
# PDE9 = PDE9 (Homo sapiens, UniProt O76083); assay: PDE9 inhibition assay; details: for inhibition at 10 µM / PDE9 Inhibition at 10 μM (%): 10 μM of inhibitor
# Experimental: A PDE9 assay may for example, be performed as follows: The assay is performed in 60 μL samples containing a fixed amount of the relevant PDE enzyme (sufficient to convert 20-25% of the cyclic nucleotide substrate), a buffer (50 mM HEPES pH 7.6; 10 mM MgCl2; 0.02% Tween20), 0.1 mg/ml BSA, 225 pCi of ^3H-labelled cyclic nucleotide substrate, tritium labeled cAMP to a final concentration of 5 nM and varying amounts of inhibitors. Reactions are initiated by addition of the cyclic nucleotide substrate, and reactions are allowed to proceed for one hr at room temperature before being terminated through mixing with 15 μL 8 mg/mL yttrium silicate SPA beads (Amersham). The beads are allowed to settle for one hr in the dark before the plates are counted in a Wallac 1450 Microbeta counter. The measured signal can be converted to activity relative to an uninhibited control (100%) and IC50 values can be calculated using the Xlfit extension to EXCEL.
# In the context of the present invention the assay was performed in 60 μL assay buffer (50 mM HEPES pH 7.6; 10 mM MgCl2; 0.02% Tween20) containing enough PDE9 to convert 20-25% of 10 nM ^3H-cAMP, and […] 10 μM of inhibitor. Following 1 hr incubation the reactions were terminated by addition of 15 μL 8 mg/mL yttrium silicate SPA beads (Amersham). The beads were allowed to settle for one hr in the dark before the plates were counted in a Wallac 1450 Microbeta counter.
# PDE1C = PDE1C (Homo sapiens, UniProt Q14123); assay: PDE1 inhibition assay (PDE1C); details: 15 nM tritium labelled cAMP, SPA
# Experimental: as §1
# PDE1B = PDE1B (Homo sapiens, UniProt Q01064); assay: PDE1 inhibition assay (PDE1B); details: 15 nM tritium labelled cAMP, SPA
# Experimental: as §1
# Sequence of PDE1C (Q14123 whole entry): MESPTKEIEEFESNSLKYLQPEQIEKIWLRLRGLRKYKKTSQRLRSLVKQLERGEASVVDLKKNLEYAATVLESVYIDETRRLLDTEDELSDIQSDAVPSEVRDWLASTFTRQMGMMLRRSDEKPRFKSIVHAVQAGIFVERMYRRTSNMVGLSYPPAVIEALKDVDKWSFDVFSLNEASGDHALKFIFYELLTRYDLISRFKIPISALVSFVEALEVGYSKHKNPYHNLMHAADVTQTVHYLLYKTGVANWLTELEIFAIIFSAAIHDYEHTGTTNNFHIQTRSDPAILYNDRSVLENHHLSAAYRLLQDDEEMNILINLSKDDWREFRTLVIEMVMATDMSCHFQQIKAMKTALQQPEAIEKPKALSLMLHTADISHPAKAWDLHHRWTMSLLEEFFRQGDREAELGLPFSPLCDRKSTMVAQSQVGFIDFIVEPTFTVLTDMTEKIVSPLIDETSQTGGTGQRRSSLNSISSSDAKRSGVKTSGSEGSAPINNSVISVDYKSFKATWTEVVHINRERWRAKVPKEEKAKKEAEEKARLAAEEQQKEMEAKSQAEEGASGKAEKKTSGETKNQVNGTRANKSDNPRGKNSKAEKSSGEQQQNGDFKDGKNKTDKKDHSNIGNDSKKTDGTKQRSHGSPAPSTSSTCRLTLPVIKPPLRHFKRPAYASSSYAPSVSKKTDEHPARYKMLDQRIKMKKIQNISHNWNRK
# Sequence of PDE9 (O76083 whole entry): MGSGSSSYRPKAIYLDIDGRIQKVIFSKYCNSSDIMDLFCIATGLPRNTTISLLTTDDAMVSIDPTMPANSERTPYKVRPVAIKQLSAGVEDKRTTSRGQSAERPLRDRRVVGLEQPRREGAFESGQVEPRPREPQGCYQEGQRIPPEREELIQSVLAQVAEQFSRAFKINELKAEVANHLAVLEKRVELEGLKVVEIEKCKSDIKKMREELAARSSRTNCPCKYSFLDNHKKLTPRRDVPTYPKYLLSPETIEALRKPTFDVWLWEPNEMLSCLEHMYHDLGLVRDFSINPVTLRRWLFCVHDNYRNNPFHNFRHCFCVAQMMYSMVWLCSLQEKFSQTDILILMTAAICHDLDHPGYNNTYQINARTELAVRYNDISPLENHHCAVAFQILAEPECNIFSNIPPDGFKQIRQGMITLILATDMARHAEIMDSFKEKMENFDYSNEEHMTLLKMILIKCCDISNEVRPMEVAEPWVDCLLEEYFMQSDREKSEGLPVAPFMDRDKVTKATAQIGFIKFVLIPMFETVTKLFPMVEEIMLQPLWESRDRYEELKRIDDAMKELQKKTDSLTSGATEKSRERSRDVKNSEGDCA
# Sequence of PDE1B (Q01064 whole entry): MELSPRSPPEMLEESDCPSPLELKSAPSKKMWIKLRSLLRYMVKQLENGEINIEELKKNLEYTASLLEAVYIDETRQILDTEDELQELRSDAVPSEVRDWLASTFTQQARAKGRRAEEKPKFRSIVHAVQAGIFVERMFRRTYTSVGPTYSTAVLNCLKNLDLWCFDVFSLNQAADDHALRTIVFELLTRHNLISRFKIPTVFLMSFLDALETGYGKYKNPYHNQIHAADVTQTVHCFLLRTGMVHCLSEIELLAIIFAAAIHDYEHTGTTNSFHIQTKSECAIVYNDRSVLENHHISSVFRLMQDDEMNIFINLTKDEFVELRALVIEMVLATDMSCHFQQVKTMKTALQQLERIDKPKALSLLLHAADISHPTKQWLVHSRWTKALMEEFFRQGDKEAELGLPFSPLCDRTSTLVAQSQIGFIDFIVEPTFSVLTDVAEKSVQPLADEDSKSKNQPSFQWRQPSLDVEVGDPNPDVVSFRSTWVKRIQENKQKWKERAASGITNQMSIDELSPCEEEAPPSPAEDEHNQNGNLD
# Sequence of PDE1A (P54750 whole entry): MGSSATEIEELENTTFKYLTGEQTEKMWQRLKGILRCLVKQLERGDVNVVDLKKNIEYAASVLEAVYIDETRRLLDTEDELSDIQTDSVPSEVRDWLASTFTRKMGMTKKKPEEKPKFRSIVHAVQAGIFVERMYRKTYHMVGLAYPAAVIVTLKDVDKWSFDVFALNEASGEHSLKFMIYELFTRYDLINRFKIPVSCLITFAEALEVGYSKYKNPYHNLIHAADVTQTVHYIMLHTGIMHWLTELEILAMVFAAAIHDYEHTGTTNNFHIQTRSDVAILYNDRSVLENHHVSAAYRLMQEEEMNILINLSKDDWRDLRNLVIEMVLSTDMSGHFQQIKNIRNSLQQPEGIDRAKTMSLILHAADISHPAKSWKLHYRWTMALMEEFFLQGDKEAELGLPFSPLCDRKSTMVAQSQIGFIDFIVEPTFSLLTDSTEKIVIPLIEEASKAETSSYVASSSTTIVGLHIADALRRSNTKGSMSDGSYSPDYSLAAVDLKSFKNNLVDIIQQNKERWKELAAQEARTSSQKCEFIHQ
SMILES,IC50 (PDE1A),inhibition at 10 µM (PDE9),IC50 (PDE1C),IC50 (PDE1B),PDE9 Inhibition at 10 μM (%) (PDE9),IC50 (PDE9; printed in the PDE9 inhibition column)
"Cn1c(Cc2ccc(-c3cccc(F)n3)cc2)cn2c(C3CCOC3)ncc2c1=O (single isomer, unassigned; isomer 1) [Example 27, 6-(4-(6-fluoropyridin-2-yl)benzyl)-7-methyl-3-(tetrahydrofuran-3-yl)imidazo[1,5-a]pyrazin-8(7H)-one, Isomer 1]",57 nM,4%,96 nM,16 nM,–,–
"CC1OCCC1c1ncc2c(=O)n(C)c(Cc3ccc(-c4cccc(F)n4)cc3)cn12 (single isomer, unassigned; isomer 1) [Example 29, 6-(4-(6-fluoropyridin-2-yl)benzyl)-7-methyl-3-(2-methyltetrahydrofuran-3-yl)imidazo[1,5-a]pyrazin-8(7H)-one, Isomer 1]",61 nM,–,104 nM,24 nM,4%,–
"Cn1c(Cc2ccc(-c3cccc(F)n3)cc2)cn2c(C3CCOC3)ncc2c1=O (single isomer, unassigned; isomer 2) [Example 28, 6-(4-(6-fluoropyridin-2-yl)benzyl)-7-methyl-3-(tetrahydrofuran-3-yl)imidazo[1,5-a]pyrazin-8(7H)-one, Isomer 2]",71 nM,–,111 nM,26 nM,6%,–
"CC1OCCC1c1ncc2c(=O)n(C)c(Cc3ccc(-c4cccc(F)n4)cc3)cn12 (single isomer, unassigned; isomer 2) [Example 30, 6-(4-(6-fluoropyridin-2-yl)benzyl)-7-methyl-3-(2-methyltetrahydrofuran-3-yl)imidazo[1,5-a]pyrazin-8(7H)-one, Isomer 2]",70 nM,–,148 nM,71 nM,−2%,–
"CC1OCCC1c1ncc2c(=O)n(C)c(Cc3ccc(-c4cccc(F)n4)cc3)cn12 (single isomer, unassigned; isomer 3) [Example 31, 6-(4-(6-fluoropyridin-2-yl)benzyl)-7-methyl-3-(2-methyltetrahydrofuran-3-yl)imidazo[1,5-a]pyrazin-8(7H)-one, Isomer 3]",18 nM,–,45 nM,4 nM,10%,–
"CC1OCCC1c1ncc2c(=O)n(C)c(Cc3ccc(-c4cccc(F)n4)cc3)cn12 (single isomer, unassigned; isomer 4) [Example 32, 6-(4-(6-fluoropyridin-2-yl)benzyl)-7-methyl-3-(2-methyltetrahydrofuran-3-yl)imidazo[1,5-a]pyrazin-8(7H)-one, Isomer 4]",5.8 nM,–,9.2 nM,1.3 nM,5%,–
"Cc1cccc(-c2ccc(Cc3cc4c(cnn4C4CCOCC4)c(=O)n3C)cc2)n1 [Example 1, 5-methyl-6-[[4-(6-methyl-2-pyridyl)phenyl]methyl]-1-tetrahydropyran-4-yl-pyrazolo[4,3-c]pyridin-4-one]",150 nM,10%,220 nM,32 nM,–,–
"Cn1c(Cc2ccc(-c3ccccn3)cc2)nc2c(cnn2C2CCOCC2)c1=O [Example 2, 5-methyl-6-[[4-(2-pyridyl)phenyl]methyl]-1-tetrahydropyran-4-yl-pyrazolo[3,4-d]pyrimidin-4-one]",390 nM,5%,530 nM,92 nM,–,–
"Cc1cccc(-c2ccc(Cc3nc4c(cnn4C4CCOCC4)c(=O)n3C)cc2)n1 [Example 3, 5-methyl-6-[[4-(6-methyl-2-pyridyl)phenyl]methyl]-1-tetrahydropyran-4-yl-pyrazolo[3,4-d]pyrimidin-4-one]",350 nM,25%,660 nM,93 nM,–,–
"Cn1c(Cc2ccc(-c3cccc(F)n3)cc2)nc2c(cnn2C2CCOCC2)c1=O [Example 4, 6-[[4-(6-fluoro-2-pyridyl)phenyl]methyl]-5-methyl-1-tetrahydropyran-4-yl-pyrazolo[3,4-d]pyrimidin-4-one]",180 nM,17%,2100 nM,57 nM,–,–
"Cn1c(Cc2ccc(-c3cccc(F)n3)cc2)cc2c(cnn2C2CCOCC2)c1=O [Example 5, 6-[[4-(6-fluoro-2-pyridyl)phenyl]methyl]-5-methyl-1-tetrahydropyran-4-yl-pyrazolo[4,3-c]pyridin-4-one]",120 nM,3%,190 nM,20 nM,–,–
"Cn1c(Cc2ccc(-c3ccccn3)cc2)cc2c(cnn2C2CCOCC2)c1=O [Example 6, 5-methyl-6-[[4-(2-pyridyl)phenyl]methyl]-1-tetrahydropyran-4-yl-pyrazolo[4,3-c]pyridin-4-one]",160 nM,4%,240 nM,25 nM,–,–
"COc1ccc(Cn2c(CN3CCN(c4ccccn4)CC3)cn3c(C4CCOCC4)ncc3c2=O)cc1 [Example 7, 7-[(4-methoxyphenyl)methyl]-6-[[4-(2-pyridyl)piperazin-1-yl]methyl]-3-tetrahydropyran-4-yl-imidazo[1,5-a]pyrazin-8-one]",88 nM,19%,190 nM,13 nM,–,–
"COc1ccc(Cn2c(CN3CCN(c4ccccc4)CC3)cn3c(C4CCOCC4)ncc3c2=O)cc1 [Example 8, 7-[(4-methoxyphenyl)methyl]-6-[(4-phenylpiperazin-1-yl)methyl]-3-tetrahydropyran-4-yl-imidazo[1,5-a]pyrazin-8-one]",59 nM,11%,140 nM,9.8 nM,–,–
"COc1ccc(Cn2c(Cc3ccc(-c4ccccn4)cc3)cn3c(C4CCOCC4)ncc3c2=O)cc1 [Example 9, 7-[(4-methoxyphenyl)methyl]-6-[[4-(2-pyridyl)phenyl]methyl]-3-tetrahydropyran-4-yl-imidazo[1,5-a]pyrazin-8-one]",0.29 nM,39%,0.38 nM,0.19 nM,–,–
"O=c1[nH]c(Cc2ccc(-c3ccccn3)cc2)cn2c(C3CCOCC3)ncc12 [Example 10, 6-[[4-(2-pyridyl)phenyl]methyl]-3-tetrahydropyran-4-yl-7H-imidazo[1,5-a]pyrazin-8-one]",17 nM,–,22 nM,6 nM,–,180 nM
"Cn1c(Cc2ccc(-c3ccccn3)cc2)cn2c(C3CCOCC3)ncc2c1=O [Example 11, 7-methyl-6-[[4-(2-pyridyl)phenyl]methyl]-3-tetrahydropyran-4-yl-imidazo[1,5-a]pyrazin-8-one]",30 nM,-10%,120 nM,3.5 nM,–,–
"CCn1c(Cc2ccc(-c3ccccn3)cc2)cn2c(C3CCOCC3)ncc2c1=O [Example 12, 7-ethyl-6-[[4-(2-pyridyl)phenyl]methyl]-3-tetrahydropyran-4-yl-imidazo[1,5-a]pyrazin-8-one]",12 nM,4%,26 nM,3.1 nM,–,–
"Cc1cccc(-c2ccc(Cc3cn4c(C5CCOCC5)ncc4c(=O)n3C)cc2)n1 [Example 13, 7-methyl-6-[[4-(6-methyl-2-pyridyl)phenyl]methyl]-3-tetrahydropyran-4-yl-imidazo[1,5-a]pyrazin-8-one]",81 nM,18%,80 nM,14 nM,–,–
"Cn1c(Cc2ccc(-c3cccc(F)n3)cc2)cn2c(C3CCOCC3)ncc2c1=O [Example 14, 6-[[4-(6-fluoro-2-pyridyl)phenyl]methyl]-7-methyl-3-tetrahydropyran-4-yl-imidazo[1,5-a]pyrazin-8-one]",62 nM,14%,67 nM,5.2 nM,–,–
"Cn1c(Cc2ccc(-c3cccc(C(F)F)n3)cc2)cn2c(C3CCOCC3)ncc2c1=O [Example 15, 6-[[4-[6-(difluoromethyl)-2-pyridyl]phenyl]methyl]-7-methyl-3-tetrahydropyran-4-yl-imidazo[1,5-a]pyrazin-8-one]",58 nM,6%,87 nM,14 nM,–,–
